Data taken from US11597706B2, “Compounds and compositions for treating conditions associated with NLRP activity” (Novartis AG, priority 2016, dated 2023).

target: T1, hNLRP3 (THP-1, IL-1β) (Homo sapiens, UniProt Q96P20); assay: IL-1β production in PMA-differentiated THP-1 cells stimulated with gramicidin; type: cell-based; details: Table 1, gramicidin 5 μM, IL-1β readout
T1 construct: THP-1 cells were purchased from the American Type Culture Collection; host or cells: THP-1 cells, PMA-differentiated, stimulated with gramicidin
T1 sequence (Q96P20 whole entry): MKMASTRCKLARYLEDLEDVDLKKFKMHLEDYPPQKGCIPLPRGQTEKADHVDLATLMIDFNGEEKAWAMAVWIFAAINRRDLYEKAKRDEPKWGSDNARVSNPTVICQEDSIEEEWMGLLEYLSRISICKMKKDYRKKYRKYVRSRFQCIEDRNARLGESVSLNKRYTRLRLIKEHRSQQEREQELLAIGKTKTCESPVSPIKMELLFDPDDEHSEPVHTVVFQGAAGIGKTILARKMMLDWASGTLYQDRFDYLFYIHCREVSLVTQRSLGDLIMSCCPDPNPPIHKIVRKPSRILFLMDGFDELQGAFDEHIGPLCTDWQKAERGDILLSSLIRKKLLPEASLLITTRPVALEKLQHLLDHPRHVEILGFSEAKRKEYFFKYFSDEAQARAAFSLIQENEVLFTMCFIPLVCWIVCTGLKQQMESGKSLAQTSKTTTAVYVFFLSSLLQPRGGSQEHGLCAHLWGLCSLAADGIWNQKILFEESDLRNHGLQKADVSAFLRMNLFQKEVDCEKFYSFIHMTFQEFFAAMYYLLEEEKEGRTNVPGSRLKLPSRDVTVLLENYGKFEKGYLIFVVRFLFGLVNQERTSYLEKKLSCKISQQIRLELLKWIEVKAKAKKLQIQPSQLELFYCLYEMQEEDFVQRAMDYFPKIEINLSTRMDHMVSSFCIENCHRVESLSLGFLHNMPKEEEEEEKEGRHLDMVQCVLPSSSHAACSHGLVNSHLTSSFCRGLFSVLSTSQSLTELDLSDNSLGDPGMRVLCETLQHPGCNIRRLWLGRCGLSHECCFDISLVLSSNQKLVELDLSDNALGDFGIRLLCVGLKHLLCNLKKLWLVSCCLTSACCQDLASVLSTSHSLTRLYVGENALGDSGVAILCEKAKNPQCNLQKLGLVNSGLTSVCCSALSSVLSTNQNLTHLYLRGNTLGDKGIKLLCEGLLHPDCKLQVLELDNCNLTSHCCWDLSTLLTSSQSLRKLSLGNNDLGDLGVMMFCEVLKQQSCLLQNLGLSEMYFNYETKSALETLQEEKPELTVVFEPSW
Experimental: IL-1β Production in PMA-Differentiated THP-1 Cells Stimulated With Gramicidin.
Cell culture-THP-1 cells were purchased from the American Type Culture Collection and sub-cultured according to instructions from the supplier. Prior to experiments, cells were cultured in RPMI 1640 containing 10% heat inactivated FBS, penicillin (100 units/ml) and streptomycin (100 μg/ml), and maintained in log phase prior to experimental setup. Prior to the experiment THP-1 were treated with PMA (Phorbol 12-myristate 13-acetate) (10 μg/ml) for 24 hours. The day of the experiment the media was removed and attaching cells were treated with trypsin for 2 minutes, cells were then collected, washed with PBS (phosphate buffer saline), spin down, resuspended in 2% heat inactivated FBS with RPMI at a concentration of 1×10^6 cells/ml, and 100 μl was plated in a 96 well plate. Cells were incubated with compounds for 1 hours and then stimulated with Gramicidin (5 μM) (Enzo) for 2 hours. Cell free supernatant was collected and the production of IL-1β was evaluated by ELISA. Compounds were dissolved in dimethyl sulfoxide (DMSO) and added to the culture medium to achieve desired concentration (e.g. 100, 30, 10, 3, 1, 0.3 or 0.1 μM). A vehicle only control was run concurrently with each experiment. Final DMSO concentration was 1%.
THP-1 cells were purchased from the American Type Culture Collection and sub-cultured according to instructions from the supplier. Prior to experiments, cells were cultured in complete RPMI 1640 (containing 10% heat inactivated FBS, penicillin (100 units/ml) and streptomycin (100 μg/ml)), and maintained in log phase prior to experimental setup. Prior to the experiment THP-1 were treated with PMA (Phorbol 12-myristate 13-acetate) (20 ng/ml) for 16-18 hours. On the day of the experiment the media was removed and adherent cells were detached with trypsin for 5 minutes. Cells were then harvested, washed with complete RPMI 1640, spun down, resuspended in RPMI 1640 (containing 2% heat inactivated FBS, penicillin (100 units/ml) and streptomycin (100 μg/ml). The cells were plated in a 384-well plate at a density of 50,000 cells/well (final assay volume 50 μl). Compounds were dissolved in dimethyl sulfoxide (DMSO) and added to the culture medium to achieve desired concentration (e.g. 100, 33, 11, 3.7, 1.2, 0.41, 0.14, 0.046, 0.015, 0.0051, 0.0017 μM). Cells were incubated with compounds for 1 hour and then stimulated with gramicidin (5 μM) (Enzo) for 2 hours. Cell free supernatant was collected and the production of IL-1β was evaluated by HTRF (cisbio). A vehicle only control was run concurrently with each experiment. Final DMSO concentration was 0.38%.

IC50 [µM]	Structure (SMILES)
< 1	CC(C)(O)c1cc(C#N)cc(S(=O)(=O)NC(=O)Nc2c3c(c(Cl)c4c2CCC4)CCC3)c1 [Compound 110, N-(8-chloro-1,2,3,5,6,7-hexahydros-indacen-4-ylcarbamoyl)-3-cyano-5-(2-hydroxypropan-2-yl)benzenesulfonamide]
< 1	CC(C)(O)c1cccc(S(=O)(=O)NC(=O)Nc2c3c(c(F)c4c2CCC4)CCC3)c1 [Compound 111, N-(8-fluoro-1,2,3,5,6,7-hexahydros-indacen-4-ylcarbamoyl)-3-(2-hydroxypropan-2-yl)benzenesulfonamide]
< 1	CC(C)(O)c1cc(C#N)cc(S(=O)(=O)NC(=O)Nc2c3c(c(F)c4c2CCC4)CCC3)c1 [Compound 112, 3-cyano-N-(8-fluoro-1,2,3,5,6,7-hexahydros-indacen-4-ylcarbamoyl)-5-(2-hydroxypropan-2-yl)benzenesulfonamide]
< 1	CC(C)(O)c1cc(Cl)cc(S(=O)(=O)NC(=O)Nc2c3c(c(F)c4c2CCC4)CCC3)c1 [Compound 113, 3-chloro-N-(8-fluoro-1,2,3,5,6,7-hexahydros-indacen-4-ylcarbamoyl)-5-(2-hydroxypropan-2-yl)benzenesulfonamide]
< 1	CC(C)(O)c1cc(F)cc(S(=O)(=O)NC(=O)Nc2c3c(c(F)c4c2CCC4)CCC3)c1 [Compound 114, 3-fluoro-N-(8-fluoro-1,2,3,5,6,7-hexahydros-indacen-4-ylcarbamoyl)-5-(2-hydroxypropan-2-yl)benzenesulfonamide]
< 1	CC(C)c1cccc(C(C)C)c1NC(=O)NS(=O)(=O)c1cc(C#N)cc(C(C)(C)O)c1 [Compound 115, 3-cyano-N-(2,6-diisopropylphenylcarbamoyl)-5-(2-hydroxypropan-2-yl)benzenesulfonamide]
< 1	CC(C)c1cc(C#N)cc(C(C)C)c1NC(=O)NS(=O)(=O)c1cc(C#N)cc(C(C)(C)O)c1 [Compound 116, 3-cyano-N-(4-cyano-2,6-diisopropylphenylcarbamoyl)-5-(2-hydroxypropan-2-yl)benzenesulfonamide]
< 1	CC(C)c1cc(F)cc(C(C)C)c1NC(=O)NS(=O)(=O)c1cc(C#N)cc(C(C)(C)O)c1 [Compound 117, 3-cyano-N-(4-fluoro-2,6-diisopropylphenylcarbamoyl)-5-(2-hydroxypropan-2-yl)benzenesulfonamide]
< 1	CC(C)c1cccc(C(C)C)c1NC(=O)NS(=O)(=O)c1cc(Cl)cc(C(C)(C)O)c1 [Compound 120, 3-chloro-N-(2,6-diisopropylphenylcarbamoyl)-5-(2-hydroxypropan-2-yl)benzenesulfonamide]
< 1	CC(C)c1cc(F)cc(C(C)C)c1NC(=O)NS(=O)(=O)c1cc(Cl)cc(C(C)(C)O)c1 [Compound 123, 3-chloro-N-(4-fluoro-2,6-diisopropylphenylcarbamoyl)-5-(2-hydroxypropan-2-yl)benzenesulfonamide]
< 1	CC(C)c1cc(C#N)cc(C(C)C)c1NC(=O)NS(=O)(=O)c1cc(F)cc(C(C)(C)O)c1 [Compound 126]
< 1	CC(C)c1cc(F)cc(C(C)C)c1NC(=O)NS(=O)(=O)c1cc(F)cc(C(C)(C)O)c1 [Compound 127, 3-fluoro-N-(4-fluoro-2,6-diisopropylphenylcarbamoyl)-5-(2-hydroxypropan-2-yl)benzenesulfonamide]
< 1	CC(C)(O)c1ccc(F)c(S(=O)(=O)NC(=O)Nc2c3c(cc4c2CCC4)CCC3)c1 [Compound 131, 1-[[2-fluoro-5-(2-hydroxypropan-2-yl)benzene]sulfonyl]-3-(1,2,3,5,6,7-hexahydro-s-indacen-4-yl)urea]

same assay, conditions: Table 2, gramicidin 5 μM, IL-1β readout

IC50 [µM]	Structure (SMILES)
< 1	CC(C)c1ccc(F)c(C(C)C)c1NC(=O)NS(=O)(=O)c1cc(Cl)cc(C(C)(C)O)c1 [Compound 137, 3-chloro-N-(3-fluoro-2,6-diisopropylphenylcarbamoyl)-5-(2-hydroxypropan-2-yl)benzenesulfonamide]
< 1	CC(C)c1cc(C#N)cc(C(C)C)c1NC(=O)NS(=O)(=O)c1cc(Cl)cc(C(C)(C)O)c1 [Compound 138, 3-chloro-N-(4-cyano-2,6-diisopropylphenylcarbamoyl)-5-(2-hydroxypropan-2-yl)benzenesulfonamide]
< 1	CC(C)c1ccc(F)c(C(C)C)c1NC(=O)NS(=O)(=O)c1cccc(C(C)(C)O)c1 [Compound 141, N-(3-fluoro-2,6-diisopropylphenylcarbamoyl)-3-(2-hydroxypropan-2-yl)benzenesulfonamide]
< 1	CC(C)(O)c1cc(C#N)cc(S(=O)(=O)NC(=O)Nc2c3c(cc4c2CCC4)CCC3)c1 [Compound 142]
< 1	CC(C)(O)c1cc(C(C)(C)O)cc(S(=O)(=O)NC(=O)Nc2c3c(cc4c2CCC4)CCC3)c1 [Compound 143]
< 1	CC(C)c1ccc(F)c(C(C)C)c1NC(=O)NS(=O)(=O)c1cc(F)cc(C(C)(C)O)c1 [Compound 144, 3-fluoro-N-(3-fluoro-2,6-diisopropylphenylcarbamoyl)-5-(2-hydroxypropan-2-yl)benzenesulfonamide]
< 1	CC(C)c1cc(Cl)cc(C(C)C)c1NC(=O)NS(=O)(=O)c1cc(C#N)cc(C(C)(C)O)c1 [Compound 145, N-(4-chloro-2,6-diisopropylphenylcarbamoyl)-3-cyano-5-(2-hydroxypropan-2-yl)benzenesulfonamide]
< 1	CC(C)(O)c1cc(N2CCOCC2)cc(S(=O)(=O)NC(=O)Nc2c3c(cc4c2CCC4)CCC3)c1 [Compound 146]
< 1	CC(C)c1cc(C#N)cc(C(C)C)c1NC(=O)NS(=O)(=O)c1cccc(C(C)(C)O)c1 [Compound 147, N-(4-cyano-2,6-diisopropylphenylcarbamoyl)-3-(2-hydroxypropan-2-yl)benzenesulfonamide]
1 to 5	CC(C)c1ccc(F)c(C(C)C)c1NC(=O)NS(=O)(=O)c1cc(C#N)cc(C(C)(C)O)c1 [Compound 148, 3-cyano-N-(3-fluoro-2,6-diisopropylphenylcarbamoyl)-5-(2-hydroxypropan-2-yl)benzenesulfonamide]
1 to 5	CC(C)(O)c1cc(-c2ccncc2)cc(S(=O)(=O)NC(=O)Nc2c3c(cc4c2CCC4)CCC3)c1 [Compound 149, N-(1,2,3,5,6,7-hexahydro-sindacen-4-ylcarbamoyl)-3-(2-hydroxypropan-2-yl)-5-(pyridin-4-yl)benzenesulfonamide]
1 to 5	CC(C)c1cc(Cl)cc(C(C)C)c1NC(=O)NS(=O)(=O)c1cc(F)cc(C(C)(C)O)c1 [Compound 150, N-(4-chloro-2,6-diisopropylphenylcarbamoyl)-3-fluoro-5-(2-hydroxypropan-2-yl)benzenesulfonamide]
1 to 5	CC(C)(O)c1cc(-c2ccccc2)cc(S(=O)(=O)NC(=O)Nc2c3c(cc4c2CCC4)CCC3)c1 [Compound 151, N-(1,2,3,5,6,7-hexahydro-sindacen-4-ylcarbamoyl)-5-(2-hydroxypropan-2-yl)biphenyl-3-sulfonamide]
1 to 5	CC(C)c1ccc(F)c(C(C)C)c1NC(=O)NS(=O)(=O)c1cc(-c2ccccc2)cc(C(C)(C)O)c1 [Compound 153, N-(3-fluoro-2,6-diisopropylphenylcarbamoyl)-5-(2-hydroxypropan-2-yl)biphenyl-3-sulfonamide]
1 to 5	CC(C)c1cc(Cl)cc(C(C)C)c1NC(=O)NS(=O)(=O)c1cc(Cl)cc(C(C)(C)O)c1 [Compound 154, 3-chloro-N-(4-chloro-2,6-diisopropylphenylcarbamoyl)-5-(2-hydroxypropan-2-yl)benzenesulfonamide]
1 to 5	CC(C)c1ccc(F)c(C(C)C)c1NC(=O)NS(=O)(=O)c1cc(C(C)(C)O)cc(C(C)(C)O)c1 [Compound 155, N-(3-fluoro-2,6-diisopropylphenylcarbamoyl)-3,5-bis(2-hydroxypropan-2-yl)benzenesulfonamide]
1 to 5	CC(C)c1ccc(F)c(C(C)C)c1NC(=O)NS(=O)(=O)c1cc(N2CCOCC2)cc(C(C)(C)O)c1 [Compound 157, N-(3-fluoro-2,6-diisopropylphenylcarbamoyl)-3-(2-hydroxypropan-2-yl)-5-morpholinobenzenesulfonamide]
5 to 15	COC(=O)c1cc(C(C)C)c(NC(=O)NS(=O)(=O)c2cccc(C(C)(C)O)c2)c(C(C)C)c1 [Compound 158, methyl 4-(3-(3-(2-hydroxypropan-2-yl)phenylsulfonyl)ureido)-3,5-diisopropylbenzoate]
